# Experimental data from US10829452B2, “Histone methyltransferase inhibitors” (GLOBAL BLOOD THERAPEUTICS, INC., priority 2016, dated 2020).
# Structures can show the parent of a compound that is named as a salt.
# Biological target: T1, G9a (Homo sapiens, UniProt Q96KQ7)
# T1 sequence (Q96KQ7 1-1210): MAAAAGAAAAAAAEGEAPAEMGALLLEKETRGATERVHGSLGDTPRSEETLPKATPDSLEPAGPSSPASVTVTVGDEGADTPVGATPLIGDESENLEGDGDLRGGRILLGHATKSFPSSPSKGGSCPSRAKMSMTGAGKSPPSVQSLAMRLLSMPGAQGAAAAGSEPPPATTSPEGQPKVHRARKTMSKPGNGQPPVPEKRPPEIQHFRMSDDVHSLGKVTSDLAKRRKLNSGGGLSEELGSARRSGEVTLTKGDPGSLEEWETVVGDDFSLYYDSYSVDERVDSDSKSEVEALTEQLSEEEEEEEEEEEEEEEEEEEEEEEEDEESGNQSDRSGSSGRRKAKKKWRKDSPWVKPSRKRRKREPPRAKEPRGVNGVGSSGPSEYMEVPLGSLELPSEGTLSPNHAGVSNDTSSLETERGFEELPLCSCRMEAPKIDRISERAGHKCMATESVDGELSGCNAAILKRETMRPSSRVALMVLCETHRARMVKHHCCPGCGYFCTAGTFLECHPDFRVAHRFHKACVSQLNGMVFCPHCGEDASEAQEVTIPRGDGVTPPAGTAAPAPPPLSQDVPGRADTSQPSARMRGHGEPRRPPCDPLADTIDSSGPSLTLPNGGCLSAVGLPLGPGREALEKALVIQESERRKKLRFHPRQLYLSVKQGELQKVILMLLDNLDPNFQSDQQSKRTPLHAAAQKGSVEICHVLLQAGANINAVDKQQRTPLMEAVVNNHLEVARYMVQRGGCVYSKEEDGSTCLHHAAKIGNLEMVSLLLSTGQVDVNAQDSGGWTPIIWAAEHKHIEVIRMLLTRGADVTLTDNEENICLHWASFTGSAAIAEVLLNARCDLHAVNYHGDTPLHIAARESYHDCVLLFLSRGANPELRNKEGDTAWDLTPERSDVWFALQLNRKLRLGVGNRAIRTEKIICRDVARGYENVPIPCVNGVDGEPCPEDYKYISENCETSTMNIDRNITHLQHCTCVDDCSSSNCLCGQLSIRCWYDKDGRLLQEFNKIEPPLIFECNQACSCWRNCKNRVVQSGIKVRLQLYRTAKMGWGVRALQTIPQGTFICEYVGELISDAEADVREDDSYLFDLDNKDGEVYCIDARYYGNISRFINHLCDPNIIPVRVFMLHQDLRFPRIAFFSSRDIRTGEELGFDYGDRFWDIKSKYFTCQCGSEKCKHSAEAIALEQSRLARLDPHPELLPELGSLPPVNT
# Test: G9a AlphaLISA enzymatic activity assay
# Assay type: biochemical
# Details: 0.15 nM G9a, 15 uM S-adenosyl-methionine, 100 nM biotinylated histone 3 peptide (1-21), 1 hour at room temperature; read-out: G9a in (uM) (IC50, concentration that produced 50% inhibition)
# Source text: The G9a AlphaLISA assay was used to detect the methyl modifications of a biotinylated histone H3 peptide by the compounds. These modifications are done by the histone methyl transferase activity of the G9a enzyme. The assay consists of reading a chemiluminescent signal at 615 nm; this signal is generated by a laser excitation at 680 nm that transfers a reactive singlet oxygen between the donor beads and acceptor beads. Donor beads are streptavidin conjugated and bind to the biotin on the peptide. Acceptor beads are conjugated with an antibody that recognizes the specific G9a methyl mark on the peptide. If there is a methyl mark on the peptide, the acceptor beads will bind to the peptide. Upon binding, the acceptor beads will be in close proximity (<200 nm) of the donor beads and when the donor beads are excited, the transfer of the oxygen can occur and a strong signal will be generated. If there is no methyl mark, the interaction between beads will not occur and signal will be at background levels.
# For the assay, the following buffer was used to set up reactions: 50 mM Tris-HCl pH9, 50 mM NaCl, 0.01% Tween-20 and 1 mM DTT (added fresh prior to starting the reactions). The assay is set up by adding a final concentration of 0.15 nM G9a, 15 uM S-adenosyl-methionine and, 100 nM biotinylated histone 3 peptide (1-21). The reaction is incubated at room temperature for 1 hour, and subsequently quenched by the addition of the acceptor beads (anti-H3k9me2 AlphaLISA acceptor beads, PerkinElmer # AL117) at a final concentration of 20 ug/mL. The acceptor beads are incubated for 1 hour. After 1 hour, the donor beads are added at a final concentration of 20 ug/mL (Alpha Streptavidin donor beads, PerkinElmer #6760002). Donor beads are incubated for 0.5 hours. Both donor and acceptor beads are resuspended in AlphaLISA 5X Epigenetics Buffer 1 Kit (PerkinElmer # AL008) prior to addition to the reaction. All manipulations and incubations with the donor and acceptor beads are done in subdued light. Signal is detected in an EnVision plate reader in Alpha mode (see ACS Med Chem Lett. 2014 Jan. 2; 5(2):205-9. doi: 10.1021/m1400496h. eCollection 2014. Discovery and development of potent and selective inhibitors of histone methyltransferase g9a.)
# Percent inhibition was calculated for each compound dilution and the concentration that produced 50% inhibition was calculated. This value is presented as the IC50.
row,Compound,IC50 [µM]
1,"COc1cc2c3c(c(NC(C)C)nc2cc1OCCCN1CCCC1)CC(O)CC3 (centres unmarked) [Example 68, 2-methoxy-6-[(propan-2-yl)amino]-3-[3-(pyrrolidin-1-yl)propoxy]-7,8,9,10-tetrahydrophenanthridin-8-ol trifluoroacetate]",0.11
2,"COc1cc2c3c(c(NC(C)C)nc2cc1OCCCN1CCCC1)COC3 [Example 46, 8-methoxy-N-(propan-2-yl)-7-[3-(pyrrolidin-1-yl)propoxy]-1H,3H-furo[3,4-c]quinolin-4-amine]",0.26
3,"COc1cc2c3c(c(NC4CCN(C)CC4)nc2cc1OCCCN1CCCC1)CCC3 [Example 41, N-{8-methoxy-7-[3-(pyrrolidin-1-yl)propoxy]-1H,2H,3H-cyclopenta[c]quinolin-4-yl}-1-methylpiperidin-4-amine formate]",0.5
4,"COc1cc2c3c(c(NC(C)C)nc2cc1OCCCN1CCCC1)COCC3 [Example 50, 9-methoxy-N-(propan-2-yl)-8-[3-(pyrrolidin-1-yl)propoxy]-1H,2H,4H-pyrano[3,4-c]quinolin-5-amine formate]",0.24
5,"COc1cc2c3c(c(N[C@H]4C[C@H](O)C4)nc2cc1OCCCN1CCCC1)CCC3 [Example 16, (1r,3r-3-({8-methoxy-7-[3-(pyrrolidin-1-yl)propoxy]-1H,2H,3H-cyclopenta[c]quinolin-4-yl}amino)cyclobutan-1-ol trifluoroacetate]",0.11
6,"COc1cc2c3c(c(N)nc2cc1OCCCN1CCCC1)CC(C)(C)C3 [Example 118, 8-methoxy-2,2-dimethyl-7-[3-(pyrrolidin-1-yl)propoxy]-1H,2H,3H-cyclopenta[c]quinolin-4-amine formate]",0.018
7,"CNc1nc2cc(OCCCN3CCCC3)c(OC)cc2c2c1CC(C)(C)C2 [Example 53, 8-methoxy-N,2,2-trimethyl-7-[3-(pyrrolidin-1-yl)propoxy]-1H,2H,3H-cyclopenta[c]quinolin-4-amine formate]",0.043
8,"COc1cc2c3c(c(NC4CC4)nc2cc1OCCCN1CCCC1)CCC3 [Example 105, N-cyclopropyl-8-methoxy-7-[3-(pyrrolidin-1-yl)propoxy]-1H,2H,3H-cyclopenta[c]quinolin-4-amine trifluoroacetate]",0.021
9,"COc1cc2c3c(c(NCCC(F)(F)F)nc2cc1OCCCN1CCCC1)CCC3 [Example 66, 8-methoxy-7-[3-(pyrrolidin-1-yl)propoxy]-N-(3,3,3-trifluoropropyl)-1H,2H,3H-cyclopenta[c]quinolin-4-amine]",0.22
10,"COc1cc2c3c(c(N(C)C(C)C)nc2cc1OCCCN1CCCC1)CCC3 [Example 9, 8-methoxy-N-methyl-N-(propan-2-yl)-7-[3-(pyrrolidin-1-yl)propoxy]-1H,2H,3H-cyclopenta[c]quinolin-4-amine trifluoroacetate]",0.69
11,"COc1cc2c3c(c(N[C@H]4CCCC[C@@H]4O)nc2cc1OCCCN1CCCC1)CCC3 [Example 122, (1S,2S)-2-({8-methoxy-7-[3-(pyrrolidin-1-yl)propoxy]-1H,2H,3H-cyclopenta[c]quinolin-4-yl}amino)cyclohexan-1-ol formate]",0.043
12,"CCCCNc1nc2cc(OCCCN3CCCC3)c(OC)cc2c2c1CC(C)(C)C2 [Example 91, N-butyl-8-methoxy-2,2-dimethyl-7-[3-(pyrrolidin-1-yl)propoxy]-1H,2H,3H-cyclopenta[c]quinolin-4-amine formate]",0.007

# The remaining lines, values ahead:
row,IC50 [µM],Compound
1,> 10,"COc1cc2c3c(c(NC(C)C)nc2cc1OCCCN1CCC(C)(C)C1)CCC3 [Example 86, 7-[3-(3,3-dimethylpyrrolidin-1-yl)propoxy]-8-methoxy-N-(propan-2-yl)-1H,2H,3H-cyclopenta[c]quinolin-4-amine formate]"
2,0.022,"COc1cc2c3c(c(C4CC4)nc2cc1OCCCN1CCCC1)CCC(C)N3 (centres unmarked) [Example 32, 1-[3-({5-cyclopropyl-9-methoxy-2-methyl-1H,2H,3H,4H-benzo[h]1,6-naphthyridin-8-yl}oxy)propyl]pyrrolidine trifluoroacetate]"
3,0.17,"COc1cc2c3c(c(-c4ccccc4)nc2cc1OCCCN1CCCC1)CC(C)(C)N3 [Example 114, 1-[3-({8-methoxy-2,2-dimethyl-4-phenyl-1H,2H,3H-pyrrolo[3,2-c]quinolin-7-yl}oxy)propyl]pyrrolidine formate]"
4,0.07,"COc1cc2c3c(c(NCC(C)(C)C)nc2cc1OCCCN1CCCC1)CCC3 [Example 101, N-(2,2-dimethylpropyl)-8-methoxy-7-[3-(pyrrolidin-1-yl)propoxy]-1H,2H,3H-cyclopenta[c]quinolin-4-amine formate]"
5,0.97,"COc1cc2c3c(c(NC4CC4)nc2cc1OCCCN1CCCC1)COC3 [Example 48, N-cyclopropyl-8-methoxy-7-[3-(pyrrolidin-1-yl)propoxy]-1H,3H-furo[3,4-c]quinolin-4-amine]"
6,2,"COc1cc2c3c(c(NCC(F)(F)F)nc2cc1OCCCN1CCCC1)CCCC3 [Example 67, 2-methoxy-3-[3-(pyrrolidin-1-yl)propoxy]-N-(2,2,2-trifluoroethyl)-7,8,9,10-tetrahydrophenanthridin-6-amine formate]"
7,0.003,"COc1cc2c3c(c(N[C@@H](C)C4CC4)nc2cc1OCCCN1CCCC1)CCC3 [Example 88, N-[(1S)-1-cyclopropylethyl]-8-methoxy-7-[3-(pyrrolidin-1-yl)propoxy]-1H,2H,3H-cyclopenta[c]quinolin-4-amine formate]"
8,> 10,"COc1cc2c3c(c(C4CCOC4)nc2cc1OCCCN1CCCC1)CCC3 (centres unmarked) [Example 98, 1-(3-{[8-methoxy-4-(oxolan-3-yl)-1H,2H,3H-cyclopenta[c]quinolin-7-yl]oxy}propyl)pyrrolidine formate]"
9,0.015,"CCNc1nc2cc(OCCCN3CCCC3)c(OC)cc2c2c1CC(C)(C)C2 [Example 74, N-ethyl-8-methoxy-2,2-dimethyl-7-[3-(pyrrolidin-1-yl)propoxy]-1H,2H,3H-cyclopenta[c]quinolin-4-amine formate]"
10,0.009,"COc1cc2c3c(c(C4CC4)nc2cc1OCCCN1CCCC1)CC(C)(C)N3 [Example 36, 1-[3-({4-cyclopropyl-8-methoxy-2,2-dimethyl-1H,2H,3H-pyrrolo[3,2-c]quinolin-7-yl}oxy)propyl]pyrrolidine formate]"
11,0.19,"COc1cc2c3c(c(NCCO)nc2cc1OCCCN1CCCC1)CCCC3 [Example 15, 2-({2-methoxy-3-[3-(pyrrolidin-1-yl)propoxy]-7,8,9,10-tetrahydrophenanthridin-6-yl}amino)ethan-1-ol formate]"
